Laboratory results as given in patent US12157741B2, “Macrocyclic inhibitors of DYRK1A” (DANA-FARBER CANCER INSTITUTE, INC., priority 2018, dated 2024).
Where two headings read alike, the source gives them in different places.

Key:
Assay type in all cases: binding
various enzymes [1] = target: various enzymes (Homo sapiens, UniProt O00329); settings: compound 1 uM
Description: (§1) Ambit profiling was conducted in accordance with the manufacturer's instructions.

various enzymes [2] = target: various enzymes (Homo sapiens, UniProt O14730); settings: compound 1 uM
Description: as §1

various enzymes [3] = target: various enzymes (Homo sapiens, UniProt O43318); settings: compound 1 uM
Description: as §1

various enzymes [4] = target: various enzymes (Homo sapiens, UniProt O94806); settings: compound 1 uM
Description: as §1

various enzymes [5] = target: various enzymes (Homo sapiens, UniProt P00519, T315I)
Description: as §1

various enzymes [6] = target: various enzymes (Homo sapiens, UniProt P00533, L858R/T790M)
Description: as §1

various enzymes [7] = target: various enzymes (Homo sapiens, UniProt P10721, D816V)
Description: as §1

various enzymes [8] = target: various enzymes (Homo sapiens, UniProt P23443); settings: compound 1 uM
Description: as §1

various enzymes [9] = target: various enzymes (Homo sapiens, UniProt P23458); settings: compound 1 uM
various enzymes (Homo sapiens, UniProt P23458), sequence (P23458 whole entry): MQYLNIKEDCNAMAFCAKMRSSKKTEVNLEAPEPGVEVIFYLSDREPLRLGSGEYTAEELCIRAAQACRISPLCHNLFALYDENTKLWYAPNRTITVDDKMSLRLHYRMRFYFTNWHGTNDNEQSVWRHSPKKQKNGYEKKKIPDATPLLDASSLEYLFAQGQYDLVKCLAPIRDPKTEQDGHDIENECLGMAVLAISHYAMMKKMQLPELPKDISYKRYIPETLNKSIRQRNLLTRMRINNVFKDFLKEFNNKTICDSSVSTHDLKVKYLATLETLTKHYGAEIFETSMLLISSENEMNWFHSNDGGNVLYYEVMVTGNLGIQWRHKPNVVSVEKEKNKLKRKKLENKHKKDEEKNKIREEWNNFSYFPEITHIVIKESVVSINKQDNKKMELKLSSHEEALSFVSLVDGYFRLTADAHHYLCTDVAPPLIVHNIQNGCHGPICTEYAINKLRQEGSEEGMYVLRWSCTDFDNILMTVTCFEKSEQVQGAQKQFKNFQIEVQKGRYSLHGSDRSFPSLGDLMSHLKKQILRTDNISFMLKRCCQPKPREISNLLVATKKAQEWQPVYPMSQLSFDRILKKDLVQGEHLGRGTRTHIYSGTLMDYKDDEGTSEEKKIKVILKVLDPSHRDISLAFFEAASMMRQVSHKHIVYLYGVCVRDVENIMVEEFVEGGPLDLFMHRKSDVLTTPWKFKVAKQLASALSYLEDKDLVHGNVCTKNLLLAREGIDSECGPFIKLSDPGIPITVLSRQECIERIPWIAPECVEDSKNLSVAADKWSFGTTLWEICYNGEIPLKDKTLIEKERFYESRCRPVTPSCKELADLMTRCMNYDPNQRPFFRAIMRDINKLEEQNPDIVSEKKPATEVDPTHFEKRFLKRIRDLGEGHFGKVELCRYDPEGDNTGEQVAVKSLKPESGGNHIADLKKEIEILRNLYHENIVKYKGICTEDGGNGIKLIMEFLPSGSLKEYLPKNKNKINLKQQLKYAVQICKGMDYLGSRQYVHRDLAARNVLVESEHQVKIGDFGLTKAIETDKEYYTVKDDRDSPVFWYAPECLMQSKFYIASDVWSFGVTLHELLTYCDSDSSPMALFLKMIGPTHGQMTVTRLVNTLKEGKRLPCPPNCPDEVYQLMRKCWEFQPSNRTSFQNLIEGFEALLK
Description: as §1

various enzymes [10] = target: various enzymes (Homo sapiens, UniProt P31152); settings: compound 1 uM
Description: as §1

various enzymes [11] = target: various enzymes (Homo sapiens, UniProt P31751); settings: compound 1 uM
Description: as §1

various enzymes [12] = target: T1, various enzymes (Homo sapiens, UniProt P36888); settings: compound 1 uM
T1 sequence (P36888 27-993): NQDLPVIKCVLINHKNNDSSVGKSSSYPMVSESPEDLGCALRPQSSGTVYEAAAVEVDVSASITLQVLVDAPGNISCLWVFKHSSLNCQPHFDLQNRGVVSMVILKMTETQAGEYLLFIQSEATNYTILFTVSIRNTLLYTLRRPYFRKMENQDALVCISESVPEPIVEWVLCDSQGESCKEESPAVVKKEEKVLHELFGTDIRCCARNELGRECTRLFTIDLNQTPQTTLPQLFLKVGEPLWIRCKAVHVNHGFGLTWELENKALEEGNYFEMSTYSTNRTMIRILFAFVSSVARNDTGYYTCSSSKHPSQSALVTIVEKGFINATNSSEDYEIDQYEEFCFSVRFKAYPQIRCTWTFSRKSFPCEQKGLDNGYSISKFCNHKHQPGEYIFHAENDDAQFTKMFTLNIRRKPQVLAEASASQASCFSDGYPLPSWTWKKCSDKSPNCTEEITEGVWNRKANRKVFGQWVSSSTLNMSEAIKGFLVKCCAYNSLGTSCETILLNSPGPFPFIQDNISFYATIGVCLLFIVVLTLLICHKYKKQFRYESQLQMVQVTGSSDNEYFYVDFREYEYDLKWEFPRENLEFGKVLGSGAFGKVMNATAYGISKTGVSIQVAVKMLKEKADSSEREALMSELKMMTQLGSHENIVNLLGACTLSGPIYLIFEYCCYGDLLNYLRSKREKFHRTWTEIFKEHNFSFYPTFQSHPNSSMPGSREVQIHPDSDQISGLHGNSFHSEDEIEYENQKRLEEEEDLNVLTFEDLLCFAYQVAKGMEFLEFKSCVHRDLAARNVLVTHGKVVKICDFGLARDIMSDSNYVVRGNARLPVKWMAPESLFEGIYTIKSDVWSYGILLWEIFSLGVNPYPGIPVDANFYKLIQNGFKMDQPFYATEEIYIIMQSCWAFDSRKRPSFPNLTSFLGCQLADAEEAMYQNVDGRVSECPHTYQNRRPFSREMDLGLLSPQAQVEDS
Description: as §1

various enzymes [13] = target: various enzymes (Homo sapiens, UniProt P42336, M1043I)
Description: as §1

various enzymes [14] = target: various enzymes (Homo sapiens, UniProt P42680); settings: compound 1 uM
various enzymes (Homo sapiens, UniProt P42680), sequence (P42680 whole entry): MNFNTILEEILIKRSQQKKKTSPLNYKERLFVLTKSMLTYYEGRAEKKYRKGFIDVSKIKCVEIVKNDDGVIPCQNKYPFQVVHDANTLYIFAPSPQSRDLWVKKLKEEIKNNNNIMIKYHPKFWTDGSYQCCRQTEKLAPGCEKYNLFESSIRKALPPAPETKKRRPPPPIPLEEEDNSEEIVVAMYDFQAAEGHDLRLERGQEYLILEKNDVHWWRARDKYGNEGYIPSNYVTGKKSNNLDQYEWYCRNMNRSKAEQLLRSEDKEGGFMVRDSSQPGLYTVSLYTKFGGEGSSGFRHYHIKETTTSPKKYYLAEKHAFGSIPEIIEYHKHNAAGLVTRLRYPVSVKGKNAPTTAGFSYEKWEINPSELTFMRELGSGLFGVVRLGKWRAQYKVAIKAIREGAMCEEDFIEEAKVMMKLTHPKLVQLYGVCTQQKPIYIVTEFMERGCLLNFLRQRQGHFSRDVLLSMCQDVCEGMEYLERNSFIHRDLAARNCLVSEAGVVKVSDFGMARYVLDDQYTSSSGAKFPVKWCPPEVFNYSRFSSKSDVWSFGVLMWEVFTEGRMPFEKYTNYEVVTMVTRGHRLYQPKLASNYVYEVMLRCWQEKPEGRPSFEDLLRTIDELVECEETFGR
Description: as §1

various enzymes [15] = target: various enzymes (Homo sapiens, UniProt P49840); settings: compound 1 uM
various enzymes (Homo sapiens, UniProt P49840), sequence (P49840 whole entry): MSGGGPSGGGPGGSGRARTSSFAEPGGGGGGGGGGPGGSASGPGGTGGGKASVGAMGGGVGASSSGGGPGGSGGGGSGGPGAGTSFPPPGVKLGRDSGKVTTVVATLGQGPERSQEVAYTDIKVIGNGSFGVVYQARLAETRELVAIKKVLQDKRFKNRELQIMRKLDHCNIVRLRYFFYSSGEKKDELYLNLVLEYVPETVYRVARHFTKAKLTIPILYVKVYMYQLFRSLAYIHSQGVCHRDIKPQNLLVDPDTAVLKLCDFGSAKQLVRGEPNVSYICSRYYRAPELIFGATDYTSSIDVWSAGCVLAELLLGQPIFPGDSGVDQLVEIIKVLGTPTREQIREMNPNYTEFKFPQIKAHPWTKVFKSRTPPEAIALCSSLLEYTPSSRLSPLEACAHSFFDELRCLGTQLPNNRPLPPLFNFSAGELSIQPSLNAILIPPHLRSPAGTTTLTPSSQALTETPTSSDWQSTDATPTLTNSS
Description: as §1

various enzymes [16] = target: various enzymes (Homo sapiens, UniProt P51956); settings: compound 1 uM
various enzymes (Homo sapiens, UniProt P51956), sequence (P51956 whole entry): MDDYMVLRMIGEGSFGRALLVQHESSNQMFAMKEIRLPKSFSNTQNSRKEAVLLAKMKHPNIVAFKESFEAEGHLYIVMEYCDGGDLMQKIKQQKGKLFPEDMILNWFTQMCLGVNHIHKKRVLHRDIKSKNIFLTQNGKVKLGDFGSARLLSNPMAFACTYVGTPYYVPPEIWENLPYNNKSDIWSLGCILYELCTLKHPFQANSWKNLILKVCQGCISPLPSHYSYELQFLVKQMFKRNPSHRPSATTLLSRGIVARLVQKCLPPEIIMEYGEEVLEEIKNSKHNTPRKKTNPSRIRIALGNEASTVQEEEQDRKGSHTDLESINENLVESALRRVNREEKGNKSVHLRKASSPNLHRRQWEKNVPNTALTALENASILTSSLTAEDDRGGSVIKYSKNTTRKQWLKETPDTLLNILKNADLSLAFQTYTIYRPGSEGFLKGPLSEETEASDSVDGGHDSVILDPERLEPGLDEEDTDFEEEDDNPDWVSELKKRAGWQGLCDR
Description: as §1

various enzymes [17] = target: various enzymes (Homo sapiens, UniProt P53350); settings: compound 1 uM
Description: as §1

various enzymes [18] = target: various enzymes (Homo sapiens, UniProt P54753); settings: compound 1 uM
Description: as §1

various enzymes [19] = target: various enzymes (Homo sapiens, UniProt Q13976); settings: compound 1 uM
Description: as §1

various enzymes [20] = target: various enzymes (Homo sapiens, UniProt Q15759); settings: compound 1 uM
Description: as §1

various enzymes [21] = target: various enzymes (Homo sapiens, UniProt Q5S007); settings: compound 1 uM
Description: as §1

various enzymes [22] = target: various enzymes (Homo sapiens, UniProt Q8N568); settings: compound 1 uM
Description: as §1

various enzymes [23] = target: various enzymes (Homo sapiens, UniProt Q8NFD2); settings: compound 1 uM
Description: as §1

various enzymes [24] = target: various enzymes (Homo sapiens, UniProt Q8NI60); settings: compound 1 uM
various enzymes (Homo sapiens, UniProt Q8NI60), sequence (Q8NI60 163-647): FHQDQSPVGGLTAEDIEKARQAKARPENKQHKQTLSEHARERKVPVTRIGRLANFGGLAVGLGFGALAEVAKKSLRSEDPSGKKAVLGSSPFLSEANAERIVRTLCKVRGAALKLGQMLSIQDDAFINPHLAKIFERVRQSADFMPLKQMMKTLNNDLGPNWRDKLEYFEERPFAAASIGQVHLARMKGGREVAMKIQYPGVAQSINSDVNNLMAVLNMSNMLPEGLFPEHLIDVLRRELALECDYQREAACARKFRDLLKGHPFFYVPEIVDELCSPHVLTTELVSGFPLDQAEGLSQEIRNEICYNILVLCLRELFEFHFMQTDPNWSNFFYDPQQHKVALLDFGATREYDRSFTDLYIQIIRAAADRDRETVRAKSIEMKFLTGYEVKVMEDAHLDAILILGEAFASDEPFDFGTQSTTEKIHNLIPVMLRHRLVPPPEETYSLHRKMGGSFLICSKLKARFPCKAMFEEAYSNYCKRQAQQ
Description: as §1

various enzymes [25] = target: various enzymes (Homo sapiens, UniProt Q8TDX7); settings: compound 1 uM
various enzymes (Homo sapiens, UniProt Q8TDX7), sequence (Q8TDX7 whole entry): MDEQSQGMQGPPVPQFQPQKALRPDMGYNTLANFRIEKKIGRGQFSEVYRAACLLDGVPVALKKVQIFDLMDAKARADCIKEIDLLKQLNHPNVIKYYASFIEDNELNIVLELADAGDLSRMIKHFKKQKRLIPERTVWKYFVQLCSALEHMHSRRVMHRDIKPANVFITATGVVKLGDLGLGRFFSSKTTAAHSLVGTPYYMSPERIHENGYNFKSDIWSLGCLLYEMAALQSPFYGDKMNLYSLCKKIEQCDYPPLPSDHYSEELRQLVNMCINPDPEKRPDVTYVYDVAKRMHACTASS
Description: as §1

various enzymes [26] = target: various enzymes (Homo sapiens, UniProt Q96RR4); settings: compound 1 uM
Description: as §1

various enzymes [27] = target: various enzymes (Homo sapiens, UniProt Q9H2X6); settings: compound 1 uM
Description: as §1

various enzymes [28] = target: various enzymes (Homo sapiens, UniProt Q9H3Y6); settings: compound 1 uM
Description: as §1

various enzymes [29] = target: various enzymes (Homo sapiens, UniProt Q9UF33); settings: compound 1 uM
various enzymes (Homo sapiens, UniProt Q9UF33), sequence (Q9UF33 23-1036): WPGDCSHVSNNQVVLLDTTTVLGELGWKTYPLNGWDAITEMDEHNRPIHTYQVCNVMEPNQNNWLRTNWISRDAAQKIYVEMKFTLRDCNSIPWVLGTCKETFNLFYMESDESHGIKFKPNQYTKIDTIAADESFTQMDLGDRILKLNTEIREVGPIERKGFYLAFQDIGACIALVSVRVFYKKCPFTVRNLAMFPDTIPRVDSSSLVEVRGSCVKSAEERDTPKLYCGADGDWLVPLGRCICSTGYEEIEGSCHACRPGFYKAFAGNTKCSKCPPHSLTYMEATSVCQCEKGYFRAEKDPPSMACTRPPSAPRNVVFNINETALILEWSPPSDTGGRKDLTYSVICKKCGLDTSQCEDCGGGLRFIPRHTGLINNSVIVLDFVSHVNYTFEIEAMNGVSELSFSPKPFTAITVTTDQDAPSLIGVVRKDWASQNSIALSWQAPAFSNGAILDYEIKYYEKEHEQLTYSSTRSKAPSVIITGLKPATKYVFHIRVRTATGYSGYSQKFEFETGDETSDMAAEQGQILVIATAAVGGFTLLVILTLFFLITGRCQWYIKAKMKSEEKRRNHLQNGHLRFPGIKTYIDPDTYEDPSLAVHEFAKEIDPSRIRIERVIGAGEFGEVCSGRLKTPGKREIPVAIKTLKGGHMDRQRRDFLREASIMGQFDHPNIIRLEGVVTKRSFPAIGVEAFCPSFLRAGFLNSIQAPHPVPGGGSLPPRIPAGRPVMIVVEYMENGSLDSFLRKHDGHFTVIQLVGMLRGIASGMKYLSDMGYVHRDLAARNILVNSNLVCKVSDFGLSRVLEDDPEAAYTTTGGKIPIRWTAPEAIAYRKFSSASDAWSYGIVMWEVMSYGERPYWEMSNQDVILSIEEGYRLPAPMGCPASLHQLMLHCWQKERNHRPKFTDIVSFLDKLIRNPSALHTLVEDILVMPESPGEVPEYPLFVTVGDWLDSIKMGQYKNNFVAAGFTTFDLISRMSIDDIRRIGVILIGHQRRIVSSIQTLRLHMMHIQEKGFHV
Description: as §1

various enzymes [30] = target: various enzymes (Homo sapiens, UniProt Q9UQB9); settings: compound 1 uM
various enzymes (Homo sapiens, UniProt Q9UQB9), sequence (Q9UQB9 whole entry): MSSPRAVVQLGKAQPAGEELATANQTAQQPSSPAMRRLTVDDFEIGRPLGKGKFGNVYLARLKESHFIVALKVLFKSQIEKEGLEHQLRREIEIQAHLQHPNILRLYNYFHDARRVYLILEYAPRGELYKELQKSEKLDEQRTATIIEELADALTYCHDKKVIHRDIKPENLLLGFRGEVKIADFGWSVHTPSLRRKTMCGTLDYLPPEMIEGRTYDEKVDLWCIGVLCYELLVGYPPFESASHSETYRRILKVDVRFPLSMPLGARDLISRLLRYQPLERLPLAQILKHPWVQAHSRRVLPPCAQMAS
Description: as §1

CC(C)N1Cc2nn(C)cc2-c2cnc3[nH]cc(c3c2)-c2cn(nc2C(F)(F)F)CCCC1=O [Compound 45, (Z)-5-isopropyl-31-methyl-13-(trifluoromethyl)-11H,21H,31H-5-aza-2(3,5)-pyrrolo[2,3-b]pyridina-1(4,1),3(4,3)-dipyrazolacyclononaphan-6-one]
Ambit profiling: PIK3CD (various enzymes [1]): 92
Ambit profiling: RIOK3 (various enzymes [2]): 6
Ambit profiling: TAK1 (various enzymes [3]): 4.1
Ambit profiling: PRKD3 (various enzymes [4]): 11
Ambit profiling: ABL1(T315I)-nonphosphorylated (various enzymes [5]; compound 1 uM): 9.4
Ambit profiling: ABL1(T315I)-phosphorylated (various enzymes [5]; compound 1 uM): 11
Ambit profiling: EGFR(L858R, T790M) (various enzymes [6]; compound 1 uM): 27
Ambit profiling: KIT(D816V) (various enzymes [7]; compound 1 uM): 4.2
Ambit profiling: S6K1 (various enzymes [8]): 2.5
Ambit profiling: JAK1(JH1domain-catalytic) (various enzymes [9]): 36
Ambit profiling: JAK1(JH2domain-pseudokinase) (various enzymes [9]): 65
Ambit profiling: ERK4 (various enzymes [10]): 100
Ambit profiling: AKT2 (various enzymes [11]): 100
Ambit profiling: FLT3 (various enzymes [12]): 0
Ambit profiling: FLT3-autoinhibited (various enzymes [12]): 21
Ambit profiling: PIK3CA(M1043I) (various enzymes [13]; compound 1 uM): 81
Ambit profiling: TEC (various enzymes [14]): 97
Ambit profiling: GSK3A (various enzymes [15]): 17
Ambit profiling: NEK3 (various enzymes [16]): 50
Ambit profiling: PLK1 (various enzymes [17]): 93
Ambit profiling: EPHB3 (various enzymes [18]): 97
Ambit profiling: PRKG1 (various enzymes [19]): 100
Ambit profiling: p38-beta (various enzymes [20]): 100
Ambit profiling: LRRK2 (various enzymes [21]): 44
Ambit profiling: DCAMKL2 (various enzymes [22]): 100
Ambit profiling: ANKK1 (various enzymes [23]): 100
Ambit profiling: ADCK3 (various enzymes [24]): 100
Ambit profiling: NEK7 (various enzymes [25]): 97
Ambit profiling: CAMKK2 (various enzymes [26]): 5.8
Ambit profiling: HIPK2 (various enzymes [27]): 6
Ambit profiling: SRMS (various enzymes [28]): 69
Ambit profiling: EPHA6 (various enzymes [29]): 18
Ambit profiling: AURKC (various enzymes [30]): 20

COc1c2c(nn1C)CN(C(C)C)C(=O)CCCn1cc(c(C(F)(F)F)n1)-c1c[nH]c3ncc-2cc13 [Compound 50, (Z)-5-isopropyl-35-methoxy-31-methyl-13-(trifluoromethyl)-11H,21H,31H-5-aza-2(3,5)-pyrrolo[2,3-b]pyridina-1(4,1),3(4,3)-dipyrazolacyclononaphan-6-one]
Ambit profiling: PIK3CD (various enzymes [1]): 94
Ambit profiling: RIOK3 (various enzymes [2]): 11
Ambit profiling: TAK1 (various enzymes [3]): 9.1
Ambit profiling: PRKD3 (various enzymes [4]): 15
Ambit profiling: ABLT(T315I)-nonphosphorylated (various enzymes [5]): 8.8
Ambit profiling: ABLT(T315I)-phosphorylated (various enzymes [5]): 4.9
Ambit profiling: EGFR(L858R, T790M) (various enzymes [6]): 19
Ambit profiling: KIT(D816V) (various enzymes [7]): 0.35
Ambit profiling: S6K1 (various enzymes [8]): 8.6
Ambit profiling: JAK1(JH1domain-catalytic) (various enzymes [9]): 100
Ambit profiling: JAK1(JH2domain-pseudokinase) (various enzymes [9]): 81
Ambit profiling: ERK4 (various enzymes [10]): 82
Ambit profiling: AKT2 (various enzymes [11]): 86
Ambit profiling: FLT3 (various enzymes [12]): 1.1
Ambit profiling: FLT3-autoinhibited (various enzymes [12]): 6.4
Ambit profiling: PIK3CA(M1043I) (various enzymes [13]): 86
Ambit profiling: TEC (various enzymes [14]): 32
Ambit profiling: GSK3A (various enzymes [15]): 93
Ambit profiling: NEK3 (various enzymes [16]): 51
Ambit profiling: PLK1 (various enzymes [17]): 100
Ambit profiling: EPHB3 (various enzymes [18]): 62
Ambit profiling: PRKG1 (various enzymes [19]): 100
Ambit profiling: p38-beta (various enzymes [20]): 83
Ambit profiling: LRRK2 (various enzymes [21]): 50
Ambit profiling: DCAMKL2 (various enzymes [22]): 90
Ambit profiling: ANKK1 (various enzymes [23]): 94
Ambit profiling: ADCK3 (various enzymes [24]): 73
Ambit profiling: NEK7 (various enzymes [25]): 68
Ambit profiling: CAMKK2 (various enzymes [26]): 5.8
Ambit profiling: HIPK2 (various enzymes [27]): 13
Ambit profiling: SRMS (various enzymes [28]): 81
Ambit profiling: EPHA6 (various enzymes [29]): 14
Ambit profiling: AURKC (various enzymes [30]): 39
